Data from patent US9499493B2, “2,4-pyrimidinediamine compounds and their uses” (Rigel Pharmaceuticals, Inc., priority 2002, dated 2016).

How the values were obtained:
[1] = tested on: cultured human mast cells (CHMC); test: CHMC low cell density IgE activation: tryptase assay; format: cell-based; settings: anti-IgE
Procedure, shortened: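 Read-out: tryptase released into supernatant, measured by substrate turnover over 30 min at RT. Low-density CHMC (1000-1500 cells/well, per donor degranulation activity) in MT buffer, 1 hr at 37° C, then anti-IgE challenge 30 min at 37° C.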

[2] = tested on: cultured human mast cells (CHMC); test: CHMC low cell density ionomycin activation: tryptase assay; format: cell-based

| Compound | IC50 [1] [nM] | IC50 [2] [nM] | IC50 ([1]; Homo sapiens, Mast cell) [nM] | IC50 ([2]; Homo sapiens, Mast cell) [nM] |
| --- | --- | --- | --- | --- |
| O=C(CNc1cccc(Nc2ncc(F)c(Nc3cccc(O)c3)n2)c1)N1CCNCC1 [R950222, 5-Fluoro-N4-(3-hydroxyphenyl)-N2-[3-(N-piperazino)carbonylmethyleneaminophenyl]-2,4-pyrimidinediamine] | 865 | > 10000 | – | – |
| CNC(=O)COc1cccc(Nc2ncc(F)c(Nc3ccc4c(c3)CNCC4)n2)c1 [R926914, 5-Fluoro-N4-(1,2,3,4-tetrahydroisoquin-7-yl)-N2-[3-[(N-methylamino)carbonylmethyleneoxy]phenyl]-2,4-pyrimidinediamine] | 1860 | > 10000 | – | – |
| O=C(CNc1cccc(Nc2ncc(F)c(Nc3cccc(NCCO)c3)n2)c1)NCCO [R950231, 5-Fluoro-N4-[3-(2-hydroxyethylamino)phenyl]-N2-[3-[N-(2-hydroxyethylamino)]carbonylmethyleneaminophenyl]-2,4-pyrimidinediamine] | 1970 | > 10000 | – | – |
| Oc1cccc(Nc2nc(Nc3ccc(OCc4nnn[nH]4)cc3)ncc2C(F)(F)F)c1 [R920846] | – | – | > 10000 | > 10000 |
| CNC(=O)Cn1ncc2ccc(Nc3ncc(F)c(Nc4ccc5cnn(CC(=O)NC)c5c4)n3)cc21 [R935206, N2,N4-Bis[1-(N-methylaminocarbonyl)methyl-indazoline-6-yl]-5-fluoro-2,4-pyrimidinediamine] | 4710 | > 10000 | – | – |
| CCOC(=O)COc1cccc(Nc2nc(Nc3cc(OC)cc(OC)c3)ncc2F)c1 [R926804, N2-(3,5-Dimethoxyphenyl)-N4-(3-ethoxycarbonylmethyleneoxyphenyl)-5-fluoro-2,4-pyrimidinediamine] | 1580 | 7110 | – | – |
| COC(=O)COc1ccc(Nc2ncc(F)c(Nc3ccc(OC(C)C)cc3)n2)cc1 [R935159, 5-Fluoro-N4-(4-isopropoxyphenyl)-N2-(4-methoxycarbonylmethyleneoxyphenyl)-2,4-pyrimidinediamine] | 232 | 4140 | – | – |
| CN1CCN(C(=O)CNc2cccc(Nc3ncc(F)c(Nc4ccc5c(c4)OCCO5)n3)c2)CC1 [R950194, N4-(3,4-Ethylenedioxyphenyl)-5-fluoro-N2-[3-(N—(N-methyl)-piperazino)carbonylmethyleneaminophenyl]-2,4-pyrimidinediamine] | 2040 | > 10000 | – | – |
| CCOC(=O)CCn1ncc2ccc(Nc3nc(Nc4ccc5oc(C(=O)OC)cc5c4)ncc3F)cc21 [R935295, N4-[1-(2-Ethoxycarbonylethyl)indazoline-6-yl]-5-fluoro-N2-(2-methoxycarbonylbenzofur-5-yl)-2,4-pyrimidinediamine] | 1940 | > 10000 | – | – |
| Cc1nc(COc2cccc(Nc3nc(Nc4ccc(OC(C)C)cc4)ncc3F)c2)no1 [R945138, 5-Fluoro-N2-(4-isopropoxyphenyl)-N4-[3-(5-methyl-1,2,4-oxadiazol-3-yl)methyleneoxyphenyl]-2,4-pyrimidinediamine] | 1060 | 6730 | – | – |
| CC(C)c1cccc(Nc2nc(Nc3cccc(OCCO)c3)ncc2F)c1 [R940289, 5-Fluoro-N2-[3-(2-hydroxyethyleneoxy)phenyl]-N4-(3-isopropylphenyl)-2,4-pyrimidinediamine] | 272 | > 10000 | – | – |
| CNC(=O)COc1cccc(Nc2ncc(F)c(Nc3cccc(B(O)O)c3)n2)c1 [R926754, 5-Fluoro-N4-(3-dihydroxyborylphenyl)-N2-[3-[(N-methylamino)carbonylmethyleneoxy]phenyl]-2,4-pyrimidinediamine] | 388 | > 10000 | – | – |
| COC(=O)c1cc(COc2cccc(Nc3ncc(F)c(Nc4ccc5c(c4)OCCO5)n3)c2)co1 [R935207, N4-(3,4-ethylenedioxyphenyl)-5-fluoro-N2-[3-(2-methoxycarbonyl-fur-4-yl)methyleneoxyphenyl]-2,4-pyrimidinediamine] | > 10000 | > 10000 | – | – |
| Cn1nnnc1COc1ccc(Nc2ncc(F)c(Nc3ccc(OCc4nnnn4C)cc3)n2)cc1 [R945048, N2,N4-Bis[4-(1-methyl-1,2,3,4-tetrazol-5-yl)methyleneoxyphenyl]-5-fluoro-2,4-pyrimidinediamine] | 760 | > 10000 | – | – |
| Cn1nnnc1COc1ccc(Nc2ncc(F)c(Nc3cccc(O)c3)n2)cc1 [R920860, 5-Fluoro-N4-(3-hydroxyphenyl)-N2-[4-(1-methyl-1,2,3,4-tetrazol-5-yl)methyleneoxyphenyl]-2,4-pyrimidineamine] | 1010 | > 10000 | – | – |
| CNC(=O)COc1ccc(Nc2nc(Nc3ccc4c(c3)OCCO4)ncc2Br)cc1 [R925851, 5-Bromo-N2-(3,4-ethylenedioxyphenyl)-N4-[4-(N-methylamino)carbonylmethyleneoxyphenyl]-2,4-pyrimidinediamine] | 925 | > 10000 | – | – |
| O=C(COc1ccc(Nc2nc(Nc3cccc(O)c3)ncc2Br)cc1)NCC1CC1 [R925842] | 7300 | > 10000 | – | – |
| Cn1nnnc1COc1ccc(Nc2nccc(Nc3cccc(O)c3)n2)cc1 [R920917, N4-(3-hydroxyphenyl)-N2-[4-(1-methyl-1,2,3,4-tetrazol-5-yl)methyleneoxyphenyl]-2,4-pyrimidineamine] | 1580 | 9730 | – | – |

| Compound | IC50 [1] [nM] | IC50 [2] [nM] | IC50 ([1]; Homo sapiens, Mast cell) [nM] | IC50 ([2]; Homo sapiens, Mast cell) [nM] |
| --- | --- | --- | --- | --- |
| COC(=O)COc1cccc(Nc2ncc(F)c(Nc3ccc4c(c3)OCCO4)n2)c1 [R945124, N4-(3,4-Ethylenedioxyphenyl)-5-fluoro-N2-(3-methoxycarbonylmethyleneoxyphenyl)-2,4-pyrimidinediamine] | 690 | 7850 | – | – |
| CNC(=O)COc1cccc(Nc2ncc(F)c(Nc3ccc(OCCC(=O)OC)cc3)n2)c1 [R950346, N4-(4-Methoxycarbonylethyleneoxyphenyl)-5-fluoro-N2-[3-(N-methylamino)carbonylmethyleneoxyphenyl]-2,4-pyrimidinediamine] | 345 | > 10000 | – | – |
| CC(C)Oc1ccc(Nc2nc(Nc3ccc4c(cnn4CCO)c3)ncc2F)cc1 [R935255, 5-Fluoro-N2-[1-(2-hydroxyethyl)indazoline-5-yl]-N4-(4-isopropoxyphenyl)-2,4-pyrimidinediamine] | 374 | > 10000 | – | – |
| CN(C)C(=O)COc1cccc(Nc2ncc(F)c(Nc3ccc4c(c3)OCCO4)n2)c1 [R925755, N4-(3,4-Ethylenedioxyphenyl)-N2-[3-(N,N-dimethylamino)carbonylmethyleneoxyphenyl]-5-fluoro-2,4-pyrimidinediamine] | 898 | > 10000 | – | – |
| Cc1cc(Nc2ncc(F)c(Nc3ccc4cn[nH]c4c3)n2)cc(Cl)c1O [R935264, N2-(3-Chloro-4-hydroxy-3-methylphenyl)-5-fluoro-N4-(indazoline-6-yl)-2,4-pyrimidinediamine] | 135 | > 10000 | – | – |
| COC(=O)COc1cccc(Nc2ncc(F)c(Nc3cc(C)c(O)c(Cl)c3)n2)c1 [R945148, N4-(3-Chloro-4-hydroxy-5-methylphenyl)-5-fluoro-N2-(3-methoxycarbonylmethyleneoxyphenyl)-2,4-pyrimidinediamine] | 307 | > 10000 | – | – |
| CNC(=O)COc1cccc(Nc2nc(Nc3ccc4c(c3)NCCO4)ncc2F)c1 [R909247, N2-(1,4-Benzoxazin-6-yl)-5-fluoro-N4-[3-(N-methylamino)carbonylmethyleneoxyphenyl]-2,4-pyrimidinediamine] | 2390 | > 10000 | – | – |
| COCOc1ccc(Nc2nc(Nc3cccc(O)c3)ncc2F)c(F)c1 [R926680, 5-Fluoro-N4-[2-fluoro-4-(methoxymethyleneoxy)phenyl]-N2-(3-hydroxyphenyl)-2,4-pyrimidinediamine] | 1710 | > 10000 | – | – |
| Nc1cccc(Nc2nc(Nc3cccc(NCCOCc4ccccc4)c3)ncc2F)c1 [R950176, N4-(3-Aminophenyl)-N2-[3-(N-benzyloxyethyleneamino)phenyl]-5-fluoro-2,4-pyrimidinediamine] | 1340 | > 10000 | – | – |
| CNC(=O)COc1cccc(Nc2ncc(F)c(Nc3ccc(OC)c(OC)c3)n2)c1 [R926733, N4-(3,4-Dimethoxyphenyl)-5-fluoro-N2-[3-(N-methylamino)carbonylmethyleneoxyphenyl]-2,4-pyrimidinediamine] | 1500 | > 10000 | – | – |
| CCOC(=O)Cc1nnc(-c2cccc(Nc3ncc(F)c(Nc4cccc(O)c4)n3)c2)o1 [R926874] | 638 | > 10000 | – | – |
| CC(CO)Nc1cccc(Nc2ncc(F)c(Nc3cccc(NC(C)CO)c3)n2)c1 (stereo not shown) [R950171, N2,N4-Bis[3-N-(2-hydroxy-1-methylethyl)aminophenyl]-5-fluoro-2,4-pyrimidinediamine] | 585 | > 10000 | – | – |
| COC(=O)COc1ccc(Nc2nc(Nc3ccc(OCC#N)cc3)ncc2F)cc1 [R945062, N2-(4-Cyanomethyleneoxyphenyl)-5-fluoro-N4-(4-methoxycarbonylmethyleneoxyphenyl)-2,4-pyrimidinediamine] | 625 | > 10000 | – | – |
| CCOC(=O)COc1cccc(Nc2nc(Nc3cccc(C(C)(C)C)c3)ncc2F)c1 [R940266, N2-(3-tert-Butylphenyl)-N4-(3-ethoxycarbonylmethyleneoxyphenyl)-5-fluoro-4-pyrimidinediamine] | > 10000 | > 10000 | – | – |
| CCNC(=O)Oc1cccc(Nc2nc(Nc3cccc(OCC(=O)NC)c3)ncc2F)c1 [R926919] | 1410 | > 10000 | – | – |
| OCCOc1ccc(Nc2ncc(F)c(Nc3ccc4c(c3)OCCCO4)n2)cc1 [R935183, 5-Fluoro-N2-[4-(2-hydroxyethoxy)phenyl]-N4-(3,4-propylenedioxyphenyl)-2,4-pyrimidinediamine] | 729 | > 10000 | – | – |
| CNC(=O)COc1cccc(Nc2nc(Nc3cccc4c3CCO4)ncc2F)c1 [R909249, N2-(4-Dihydrobenzofuranyl)-5-fluoro-N4-[3-(N-methylamino)carbonylmethyleneoxyphenyl]-2,4-pyrimidinediamine] | > 10000 | > 10000 | – | – |
